Measurements as given in PubChem BioAssay (NCI).
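96-well plates; 48 h exposure; 5 concentrations. Endpoints by linear interpolation between flanking doses. Not reached: highest tested concentration assigned. TGI: total growth inhibition.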

Assays:
Assay in all cases: NCI anticancer screen, dose series, 48 h
[1] = tested on: SNB-78 CNS
[2] = tested on: SNB-75 CNS
[3] = tested on: SF-268 CNS
[4] = tested on: OVCAR-4 ovarian
[5] = tested on: NCI-H23 lung
[6] = tested on: 786-0 renal
[7] = tested on: KM12 colon
[8] = tested on: UACC-62 melanoma
[9] = tested on: IGROV1 ovarian
[10] = tested on: SNB-19 CNS
[11] = tested on: NCI-H522 lung
[12] = tested on: UACC-257 melanoma
[13] = tested on: M19-MEL melanoma
[14] = tested on: MALME-3M melanoma
[15] = tested on: SW-620 colon
[16] = tested on: LXFL 529 NSCLC
[17] = tested on: HCT-116 colon
[18] = tested on: TK-10 renal
[19] = tested on: SN12C renal
[20] = tested on: UO-31 renal
[21] = tested on: NCI-H460 lung
[22] = tested on: CAKI-1 renal
[23] = tested on: M14 melanoma
[24] = tested on: OVCAR-5 ovarian
[25] = tested on: CCRF-CEM leukemia
[26] = tested on: A498 renal
[27] = tested on: ACHN renal
[28] = tested on: DLD-1 colon
[29] = tested on: SK-MEL-28 melanoma
[30] = tested on: RPMI-8226 leukemia
[31] = tested on: SK-MEL-5 melanoma
[32] = tested on: SF-295 CNS
[33] = tested on: DMS 114 small cell lung
[34] = tested on: U251 CNS
[35] = tested on: COLO 205 colon
[36] = tested on: SK-OV-3 ovarian
[37] = tested on: KM20L2 colon
[38] = tested on: A549 NSCLC
[39] = tested on: HOP-62 NSCLC
[40] = tested on: OVCAR-8 ovarian
[41] = tested on: OVCAR-3 ovarian
[42] = tested on: HCC-2998 colon
[43] = tested on: HOP-18 NSCLC
[44] = tested on: EKVX NSCLC
[45] = tested on: MOLT-4 leukemia
[46] = tested on: HT29 colon
[47] = tested on: SF-539 CNS
[48] = tested on: SK-MEL-2 melanoma
[49] = tested on: K-562 leukemia
[50] = tested on: XF 498 CNS
[51] = tested on: HCT-15 colon
[52] = tested on: DMS 273 small cell lung
[53] = tested on: HL-60(TB) leukemia
[54] = tested on: NCI-H226 lung
[55] = tested on: LOX IMVI melanoma
[56] = tested on: HOP-92 NSCLC
[57] = tested on: RXF 393 renal
[58] = tested on: PC-3 prostate
[59] = tested on: SR leukemia
[60] = tested on: T-47D breast
[61] = tested on: MDA-N
[62] = tested on: BT-549 breast
[63] = tested on: MCF7 breast
[64] = tested on: NCI/ADR-RES ovarian
[65] = tested on: HS 578T breast
[66] = tested on: MDA-MB-231 breast
[67] = tested on: DU-145 prostate
[68] = tested on: MDA-MB-435

COc1cc2c(cc1OC)C(C(=O)O)C(c1ccccc1)N(C)C2=O (stereo not given)
TGI [1]: > 100 µM
TGI [2]: > 100 µM
TGI [3]: > 100 µM
TGI [4]: > 100 µM
TGI [5]: > 100 µM
TGI [6]: > 100 µM
TGI [7]: > 100 µM
TGI [8]: > 100 µM
TGI [9]: > 100 µM
TGI [10]: > 100 µM
TGI [11]: > 100 µM
TGI [12]: > 100 µM
TGI [13]: > 100 µM
TGI [14]: > 100 µM
TGI [15]: > 100 µM
TGI [16]: > 100 µM
TGI [17]: > 100 µM
TGI [18]: > 100 µM
TGI [19]: > 100 µM
TGI [20]: > 100 µM
TGI [21]: > 100 µM
TGI [22]: > 100 µM
TGI [23]: > 100 µM
TGI [24]: > 100 µM
TGI [25]: > 100 µM
TGI [26]: > 100 µM
TGI [27]: > 100 µM
TGI [28]: > 100 µM
TGI [29]: > 100 µM
TGI [30]: > 100 µM
TGI [31]: > 100 µM
TGI [32]: > 100 µM
TGI [33]: > 100 µM
TGI [34]: > 100 µM
TGI [35]: > 100 µM
TGI [36]: > 100 µM
TGI [37]: > 100 µM
TGI [38]: > 100 µM
TGI [39]: > 100 µM
TGI [40]: > 100 µM
TGI [41]: > 100 µM
TGI [42]: > 100 µM
TGI [43]: > 100 µM
TGI [44]: > 100 µM
TGI [45]: > 100 µM
TGI [46]: > 100 µM
TGI [47]: > 100 µM
TGI [48]: > 100 µM
TGI [49]: > 100 µM
TGI [50]: > 100 µM

ClC(Cl)=C(Cl)C1(Cl)CC1COCc1ccccc1 (stereo not given)
TGI [1]: 60.6 µM
TGI [2]: > 100 µM
TGI [3]: > 100 µM
TGI [4]: > 100 µM
TGI [5]: > 100 µM
TGI [6]: > 100 µM
TGI [51]: > 100 µM
TGI [7]: > 100 µM
TGI [8]: 69.5 µM
TGI [9]: > 100 µM
TGI [10]: > 100 µM
TGI [11]: 44.2 µM
TGI [12]: 97.2 µM
TGI [13]: 73.6 µM
TGI [14]: 43.7 µM
TGI [15]: > 100 µM
TGI [16]: > 100 µM
TGI [18]: > 100 µM
TGI [19]: > 100 µM
TGI [20]: 74.1 µM
TGI [21]: > 100 µM
TGI [22]: > 100 µM
TGI [52]: > 100 µM
TGI [23]: > 100 µM
TGI [24]: > 100 µM
TGI [25]: 49 µM
TGI [26]: > 100 µM
TGI [27]: > 100 µM
TGI [28]: > 100 µM
TGI [29]: > 100 µM
TGI [30]: 44.2 µM
TGI [31]: 31.8 µM
TGI [32]: 96.2 µM
TGI [33]: 59.6 µM
TGI [53]: 41.9 µM
TGI [54]: 95.6 µM
TGI [35]: 61.1 µM
TGI [36]: > 100 µM
TGI [37]: > 100 µM
TGI [38]: > 100 µM
TGI [39]: 79.3 µM
TGI [40]: > 100 µM
TGI [41]: 68.2 µM
TGI [42]: 81.2 µM
TGI [55]: 54.8 µM
TGI [56]: 42.8 µM
TGI [44]: > 100 µM
TGI [45]: 55.1 µM
TGI [46]: 86.3 µM
TGI [47]: > 100 µM
TGI [48]: 36.7 µM
TGI [49]: > 100 µM
TGI [57]: 59.6 µM
TGI [50]: 73.6 µM

CCOC(=O)N1C/C(=C\c2ccccc2)C(=O)/C(=C/c2ccccc2)C1
TGI [1]: > 81.2 µM
TGI [2]: 22.4 µM
TGI [3]: 11.9 µM
TGI [4]: 13.6 µM
TGI [58]: 5.16 µM
TGI [59]: 4.05 µM
TGI [5]: 11.4 µM
TGI [6]: 9.15 µM
TGI [60]: > 31.6 µM
TGI [51]: 5.74 µM
TGI [7]: 4.55 µM
TGI [8]: 6.51 µM
TGI [61]: 3.62 µM
TGI [9]: 11.7 µM
TGI [10]: 20.2 µM
TGI [11]: 7.44 µM
TGI [12]: 12.5 µM
TGI [13]: 3.22 µM
TGI [14]: 16.9 µM
TGI [15]: 3.7 µM
TGI [16]: 12.4 µM
TGI [17]: 2.75 µM
TGI [18]: 26.4 µM
TGI [19]: 5.61 µM
TGI [20]: 12.4 µM
TGI [21]: 42.4 µM
TGI [62]: 4.54 µM
TGI [22]: 4.51 µM
TGI [52]: 6.44 µM
TGI [23]: 6.69 µM
TGI [63]: > 20.9 µM
TGI [24]: 18.2 µM
TGI [25]: 5.79 µM
TGI [26]: 34.2 µM
TGI [27]: 10.6 µM
TGI [28]: 7.25 µM
TGI [64]: 36.6 µM
TGI [29]: 6.69 µM
TGI [30]: 1.77 µM
TGI [31]: 6.2 µM
TGI [32]: 10.1 µM
TGI [33]: 14.5 µM
TGI [53]: 4.3 µM
TGI [34]: 7.43 µM
TGI [65]: 15.3 µM
TGI [54]: 12.3 µM
TGI [66]: 5.3 µM
TGI [35]: 11.6 µM
TGI [36]: 27.8 µM
TGI [67]: > 55.8 µM
TGI [37]: 22.4 µM
TGI [38]: 54.3 µM
TGI [68]: 5.8 µM
TGI [39]: 24.8 µM
TGI [40]: 9.51 µM
TGI [41]: 14.5 µM
TGI [42]: 4.8 µM
TGI [55]: 3.63 µM
TGI [43]: > 67.5 µM
TGI [56]: 22.4 µM
TGI [44]: 31.8 µM
TGI [45]: 6 µM
TGI [46]: 4.05 µM
TGI [47]: 11 µM
TGI [48]: 28.2 µM
TGI [49]: > 38.3 µM
TGI [57]: 10.3 µM
TGI [50]: 26.6 µM

C=C1CC(CC)(CCN2C(=O)c3ccccc3C2=O)OC1=O (stereo not given)
TGI [2]: > 100 µM
TGI [3]: 21.4 µM
TGI [4]: 27.8 µM
TGI [59]: > 100 µM
TGI [5]: 29.9 µM
TGI [6]: 24.2 µM
TGI [51]: 31.6 µM
TGI [7]: 45.1 µM
TGI [8]: 26.3 µM
TGI [9]: > 100 µM
TGI [11]: 11.8 µM
TGI [12]: 27 µM
TGI [14]: 27.3 µM
TGI [15]: 22.9 µM
TGI [16]: 27.1 µM
TGI [17]: 25.4 µM
TGI [18]: 32.3 µM
TGI [19]: 45.5 µM
TGI [20]: 36.2 µM
TGI [21]: > 100 µM
TGI [22]: 7.59 µM
TGI [52]: 24.6 µM
TGI [23]: 22.8 µM
TGI [25]: > 100 µM
TGI [26]: 36.8 µM
TGI [27]: 28.6 µM
TGI [28]: 80.7 µM
TGI [30]: > 100 µM
TGI [31]: 26.1 µM
TGI [32]: > 100 µM
TGI [33]: 43 µM
TGI [53]: > 100 µM
TGI [54]: 40.6 µM
TGI [35]: 30.3 µM
TGI [37]: 46.1 µM
TGI [38]: > 100 µM
TGI [39]: > 100 µM
TGI [40]: 36.2 µM
TGI [42]: 32.1 µM
TGI [55]: 29.6 µM
TGI [44]: 31.1 µM
TGI [45]: > 100 µM
TGI [46]: 37.3 µM
TGI [47]: 46.6 µM
TGI [48]: 29.2 µM
TGI [49]: > 100 µM
TGI [57]: 29.9 µM
TGI [50]: 27.1 µM
